Measurements as given in patent US20200009173A1, “TRIAZOLE-CONTAINING MACROLIDES AND OPHTHALMIC USES THEREFOR” (Tetard, Inc., priority 2017, published 2020).
Values after ≈ are worked out from the molar mass of the structure shown. Like-named read-outs stand apart in the source and are kept apart here.

Assays:
[1] = tested on: Haemophilus parainfluenzae; experiment: MIC, Haemophilus parainfluenzae; type: cell-based; details: N = 11
Moraxella catarrhalis = experiment: MIC, Moraxella catarrhalis; type: cell-based; details: N = 21
Listeria monocytogenes = experiment: MIC, Listeria monocytogenes; type: cell-based; details: N = 10
S. pneumoniae = experiment: MICs of solithromycin and comparator drugs, S. pneumoniae (30 species); type: cell-based
Description: (§1) EXAMPLE. The formulations described herein show overall higher potency against ocular pathogens than commercial standards.
(§2) MICs (μg/ml) of Solithromycin and Comparator Drugs against Bacterial Species

Streptococcus pyogenes = experiment: MIC, Streptococcus pyogenes; type: cell-based; details: Streptococcus pyogenes
Streptococcus pneumoniae = experiment: MIC, Streptococcus pneumoniae (150 strains); type: cell-based
CXCL8 = CXCL8 (IL-8) production in LPS-stimulated PMA-differentiated U937 cells (ELISA); type: cell-based, human; details: concentration not given
Experimental: (§3) EXAMPLE. […] Cells. The human monocytic cell line U937 was obtained from the American Type Culture Collection (ATCC, Rockville, Md.). PBMCs from COPD patients were obtained from Brompton hospital and separated by AccuSPIN (Sigma-Aldrich). […] U937 cells were differentiated into adherent macrophage-like morphology by exposure to PMA (50 ng/ml) for 48 h in complete growth medium. Cell viability was assessed microscopically by trypan blue staining. Cell toxicity was determined by MTT assay as needed. This study was approved by the ethics committee of the Royal Brompton Hospitals, and all subjects gave written informed consent. Cytokine ELISA. TNFα and IL-8 concentrations in the supernatant of cell cultures were determined by sandwich ELISA according to the manufacturer's instructions (R&D Systems Europe, Abingdon, UK). Statistical analysis. The results were expressed as the mean±SEM. Comparisons of data in two groups were performed using the Student's t test or the Wilcoxon signed rank test. Multiple comparisons were made by one-way ANOVA with post hoc test (Dunnett's) as appropriate. The difference was considered significant at p<0.05. […] Anti-inflammatory effects of solithromycin in U937 cells.

MSRA = experiment: MICs of solithromycin and comparator drugs, MSRA (30 species); type: cell-based
Description: as §1, §2

Mycoplasma hominis = experiment: MIC, Mycoplasma hominis; type: cell-based; details: N = 13
Mycoplasma pneumoniae = experiment: MIC, Mycoplasma pneumoniae (38 strains); type: cell-based
MMP9 = MMP9 activity in PMA-stimulated U937 cells (gelatin zymography); type: cell-based, human
Experimental: EXAMPLE. […] Cells. The human monocytic cell line U937 was obtained from the American Type Culture Collection (ATCC, Rockville, Md.). PBMCs from COPD patients were obtained from Brompton hospital and separated by AccuSPIN (Sigma-Aldrich). […] U937 cells were differentiated into adherent macrophage-like morphology by exposure to PMA (50 ng/ml) for 48 h in complete growth medium. Cell viability was assessed microscopically by trypan blue staining. Cell toxicity was determined by MTT assay as needed. This study was approved by the ethics committee of the Royal Brompton Hospitals, and all subjects gave written informed consent. Zymography. MMP9 enzyme activity was measured by gelatin zymography. […] After electrophoresis, gels were incubated and rinsed with Novex® zymogram renaturing buffer (Invitrogen) for 30 min at room temperature. The gels were then rinsed in Novex® zymogram developing buffer (Invitrogen) for 30 min at room temperature prior to overnight incubation in the developing buffer at 37° C. After incubation, the gels were stained using a Colloidal Blue Staining Kit (Invitrogen) to visualize the zymogen bands. Statistical analysis. The results were expressed as the mean±SEM. Comparisons of data in two groups were performed using the Student's t test or the Wilcoxon signed rank test. Multiple comparisons were made by one-way ANOVA with post hoc test (Dunnett's) as appropriate. The difference was considered significant at p<0.05.

Ureaplasma urealyticum = experiment: MIC, Ureaplasma urealyticum; type: cell-based; details: N = 10
Corynebacterium spp. = experiment: MIC, Corynebacterium spp.; type: cell-based; details: Corynebacterium; N = 10
MSSA = experiment: MICs of solithromycin and comparator drugs, MSSA (31 species); type: cell-based
Description: as §1, §2

Legionella pneumophila = experiment: microbe, parasite or virus in culture; type: cell-based
[2] = tested on: Viridans group streptococci; experiment: MIC, Viridans group streptococci; type: cell-based; details: N = 51
CA-MRSA = experiment: MIC, CA-MRSA; type: cell-based, Staphylococcus aureus; details: N = 30
TNFα = TNFα production in LPS-stimulated PMA-differentiated U937 cells (ELISA); type: cell-based, human; details: concentration not given
Experimental: as §3

Mycobacterium avium = experiment: MIC, Mycobacterium avium; type: cell-based; details: Mycobacterium avium; N = 30
H. influenzae = experiment: MICs of solithromycin and comparator drugs, H. influenzae (30 species); type: cell-based
Description: as §1, §2

S. epidermidis = experiment: MICs of solithromycin and comparator drugs, S. epidermidis (30 species); type: cell-based
Description: as §1, §2

Peptostreptococcus spp. = experiment: MIC, Peptostreptococcus spp.; type: cell-based; details: Peptostreptococcus; N = 10
Neisseria gonorrhoeae = experiment: MIC, Neisseria gonorrhoeae; type: cell-based; details: N = 34
Staphylococcus aureus = experiment: MIC, Staphylococcus aureus; type: cell-based; details: N = 201
P. Acnes = experiment: MICs of solithromycin and comparator drugs against P. acnes; type: cell-based; details: Cutibacterium acnes; 51 species
Description: EXAMPLE. The formulations described herein show overall higher potency against ocular pathogens than commercial standards. MICs (μg/ml) of Solithromycin and Comparator Drugs against P. Acnes (51 Species)

Haemophilus influenzae = experiment: MIC, Haemophilus influenzae (100 strains); type: cell-based

CC[C@H]1OC(=O)[C@H](C)[C@@H](O[C@H]2C[C@@](C)(OC)[C@@H](O)[C@H](C)O2)[C@H](C)[C@@H](O[C@@H]2O[C@H](C)C[C@H](N(C)C)[C@H]2O)[C@](C)(O)C[C@@H](C)CN(C)[C@H](C)[C@@H](O)[C@]1(C)O [Azithromycin, azithromycin]
MIC50 ([1]; Haemophilus parainfluenzae): 1 µg/mL (≈ 1.34 µM) | MIC90 ([1]; Haemophilus parainfluenzae): 2 µg/mL (≈ 2.67 µM) | MIC Range [1]: 0.5-2^ μg/mL | MIC50 (Moraxella catarrhalis; Moraxella catarrhalis): 0.03 µg/mL (≈ 0.0401 µM) | MIC90 (Moraxella catarrhalis; Moraxella catarrhalis): 0.06 µg/mL (≈ 0.0801 µM) | MIC Range (Moraxella catarrhalis): 0.03 to 0.5 µg/mL | MIC50 (Listeria monocytogenes; Listeria monocytogenes): 0.5 µg/mL (≈ 0.668 µM) | MIC90 (Listeria monocytogenes; Listeria monocytogenes): 1 µg/mL (≈ 1.34 µM) | MIC Range (Listeria monocytogenes): 0.5-1^ μg/mL | I (intermediate susceptibility) (S. pneumoniae): 3% | NS (not susceptible) (S. pneumoniae): 23% | S (susceptible) (S. pneumoniae): 73% | MIC50 (S. pneumoniae; Streptococcus pneumoniae): 0.06 µg/mL (≈ 0.0801 µM) | MIC90 (S. pneumoniae; Streptococcus pneumoniae): 8 µg/mL (≈ 10.7 µM) | MIC50 (Streptococcus pyogenes): > 16 µg/mL | MIC90 (Streptococcus pyogenes; 100 strains): > 16 µg/mL | MIC90 (Streptococcus pyogenes; N = 407 (CEM-101), N = 100 (azithromycin)): > 16 µg/mL | MIC90 (Streptococcus pneumoniae; N = 150): >16 µg/mL | MIC90 (Streptococcus pneumoniae; Streptococcus pneumoniae, 150 strains, read-out: MIC90): > 16 µg/mL | MIC50 (Streptococcus pneumoniae; Streptococcus pneumoniae, N = 150): > 16 µg/mL | effect on IL-8 production (CXCL8): did not inhibit | MIC50 (MSRA): > 32 µg/mL | MIC90 (MSRA): > 32 µg/mL | I (intermediate susceptibility) (MSRA; 30 species): 0% | NS (not susceptible) (MSRA; 30 species): 90% | S (susceptible) (MSRA; 30 species): 10% | MIC Range (Mycoplasma hominis): 0.5-4^ μg/mL | MIC90 (Mycoplasma pneumoniae; Mycoplasma, 38 strains, read-out: MIC90): 0.0005 µg/mL (≈ 0.000668 µM) | MIC50 (Mycoplasma pneumoniae; Mycoplasma, N = 38): 0.00025 µg/mL (≈ 0.000334 µM) | MIC90 (Mycoplasma pneumoniae; N = 38): 0.0005 µg/mL (≈ 0.000668 µM) | inhibitory effect on MMP9 activity, lower than solithromycin (MMP9): 10 fold | MIC Range (Ureaplasma urealyticum): 0.5-4^ μg/mL | MIC50 (Ureaplasma urealyticum; Ureaplasma urealyticum): 2 µg/mL (≈ 2.67 µM) | MIC90 (Ureaplasma urealyticum; Ureaplasma urealyticum): 4 µg/mL (≈ 5.34 µM) | MIC50 (Corynebacterium spp.): > 16 µg/mL | MIC90 (Corynebacterium spp.): > 16 µg/mL | I (intermediate susceptibility) (MSSA): 0% | NS (not susceptible) (MSSA): 39% | S (susceptible) (MSSA): 61% | MIC50 (MSSA; Staphylococcus aureus, MSSA): 2 µg/mL (≈ 2.67 µM) | MIC90 (MSSA; Staphylococcus aureus, MSSA): > 32 µg/mL | MIC50 (Legionella pneumophila; Legionella pneumophila): 1 µg/mL (≈ 1.34 µM) | MIC90 (Legionella pneumophila; Legionella pneumophila): 2 µg/mL (≈ 2.67 µM) | MIC90 (Legionella pneumophila; N = 30): 2 µg/mL (≈ 2.67 µM) | MIC50 [2]: 0.12 µg/mL (≈ 0.16 µM) | MIC90 [2]: 4 µg/mL (≈ 5.34 µM) | MIC Range [2]: ≤0.008-16 ^ μg/mL | MIC Range (CA-MRSA): >16 µg/mL | MIC50 (CA-MRSA; Staphylococcus aureus, MRSA): > 16 µg/mL | MIC90 (CA-MRSA; Staphylococcus aureus, MRSA): > 16 µg/mL | effect on TNFα production (TNFα): did not inhibit | MIC50 (Mycobacterium avium): 16 µg/mL (≈ 21.4 µM) | MIC90 (Mycobacterium avium): 16 µg/mL (≈ 21.4 µM) | I (intermediate susceptibility) (H. influenzae): 0% | MIC Range (H. influenzae): 1 to 4 µg/mL | NS (not susceptible) (H. influenzae): 0% | S (susceptible) (H. influenzae): 100% | MIC50 (H. influenzae; Haemophilus influenzae): 2 µg/mL (≈ 2.67 µM) | MIC90 (H. influenzae; Haemophilus influenzae): 2 µg/mL (≈ 2.67 µM) | I (intermediate susceptibility) (S. epidermidis): 0% | NS (not susceptible) (S. epidermidis): 63% | S (susceptible) (S. epidermidis): 37% | MIC50 (S. epidermidis; Staphylococcus epidermidis): > 32 µg/mL | MIC90 (S. epidermidis; Staphylococcus epidermidis): > 32 µg/mL | MIC50 (Peptostreptococcus spp.): 8 µg/mL (≈ 10.7 µM) | MIC90 (Peptostreptococcus spp.): > 64 µg/mL | MIC Range (Neisseria gonorrhoeae): 0.06 to 2 µg/mL | MIC50 (Neisseria gonorrhoeae; Neisseria gonorrhoeae): 0.25 µg/mL (≈ 0.334 µM) | MIC90 (Neisseria gonorrhoeae; Neisseria gonorrhoeae): 0.5 µg/mL (≈ 0.668 µM) | MIC50 (Staphylococcus aureus): > 16 µg/mL | MIC90 (Staphylococcus aureus): > 16 µg/mL | MIC50 (P. Acnes): 0.06 µg/mL (≈ 0.0801 µM) | MIC90 (P. Acnes): 4 µg/mL (≈ 5.34 µM) | MIC90 (Haemophilus influenzae; Haemophilus influenzae, 100 strains, read-out: MIC90): 2 µg/mL (≈ 2.67 µM) | MIC50 (Haemophilus influenzae; Haemophilus influenzae, N = 100): 2 µg/mL (≈ 2.67 µM) | MIC90 (Haemophilus influenzae; N = 100): 2 µg/mL (≈ 2.67 µM) | MIC Range (Haemophilus influenzae; N = 100): 0.25 to 4 µg/mL
